In US6544989B2, “Benzazoles: benzoxazole, benzthiazole and benzimidazole derivatives” (Syngenta Limited, priority 1998, dated 2003):
Like-named read-outs stand apart in the source and are kept apart here. Marks after values point to notes of the source that are not given here.

Columns and labels:
Meloidogyne incognita = assay: Nematode test, J2 infective juveniles of Meloidogyne incognita, mortality; conditions: 12.5 ppm; J2 infective juveniles suspended in solution; mortality after three days
Musca domestica = conditions: 500 ppm by weight; knockdown assessed 15 minutes after treatment
Uncinula necator = assay: Fungicidal test, Uncinula necator (UNCINE) on vines, PRCO; format: in vivo; conditions: METHOD 2 (unbanded)
[1] = tested on: Erysiphe graminis f.sp. tritici; assay: Fungicidal test, Erysiphe graminis f.sp. tritici (ERYSGT) on wheat, PRCO; format: in vivo; conditions: for ERYSGT 1 d Prot/Foir PRCO: METHOD 2 (unbanded); for ERYSGT 6 hr Prot/Foir PRCO: METHOD 1 (values marked *)
Pyricularia oryzae = format: in vivo; conditions: METHOD 2 (unbanded)
Venturia inaequalis = assay: Fungicidal test, Venturia inaequalis (VENTIN) on apples, PRCO; format: in vivo; conditions: METHOD 2 (unbanded)
[2] = tested on: Phytophthora infestans lycopersici; format: in vivo
Rhizoctonia solani = assay: Fungicidal test, Rhizoctonia solani (RHIZSO) on rice, PRCO; format: in vivo; conditions: METHOD 2 (unbanded)
Puccinia recondita = assay: Fungicidal test, Puccinia recondita (PUCCRT) on wheat, PRCO; format: in vivo
Septoria nodorum = assay: Fungicidal test, Septoria nodorum (LEPTNO) on wheat, PRCO; format: in vivo
Plasmopara viticola = assay: Fungicidal test, Plasmopara viticola (PLASVI) on vines, PRCO; format: in vivo

| SMILES | MELGIN = Meloidogyne incognita, grading of mortality (score) (Meloidogyne incognita) | MUSCDO AC = Musca domestica (knockdown), score (Musca domestica) | UNCINE 1 d Prot/Foir PRCO (Uncinula necator) | ERYSGT 1 d Prot/Foir PRCO [1] | PYRIOR 1 d Prot/Foir PRCO (Pyricularia oryzae) | VENTIN 1 d Prot/Foir PRCO (Venturia inaequalis) | PHYTIN 1 d Prot/Foir PRCO ([2]; METHOD 2 (unbanded)) | RHIZSO 1 d Prot/Foir PRCO (Rhizoctonia solani) | PUCCRT 1 d Prot/Foir PRCO (Puccinia recondita; METHOD 2 (unbanded)) | LEPTNO 1 d Prot/Foir PRCO (Septoria nodorum; METHOD 2 (unbanded)) | PLASVI 1 d Prot/Foir PRCO (Plasmopara viticola; METHOD 2 (unbanded)) | ERYSGT 6 hr Prot/Foir PRCO [1] | PHYTIN 1 d Prot/Foir PRCO ([2]; METHOD 1 (values marked *)) | PUCCRT 1 d Prot/Foir PRCO (Puccinia recondita; METHOD 1 (values marked *)) | LEPTNO 1 d Prot/Foir PRCO (Septoria nodorum; METHOD 1 (values marked *)) | PLASVI 1 d Prot/Foir PRCO (Plasmopara viticola; METHOD 1 (values marked *)) |
| --- | --- | --- | --- | --- | --- | --- | --- | --- | --- | --- | --- | --- | --- | --- | --- | --- |
| CCC(C)c1nc2cc(CC(=O)Nc3snc(C)c3Cl)ccc2o1 (stereo not shown) [10(A3)] | 0 (0 indicates less than 40% mortality) | 5 (5 indicates 40-79% mortality) | 96 | 98 | 77 | 40 | 100 | 0 | 100 | 28 | 87 |  |  |  |  |  |
| Cc1nsc(NC(=O)Cc2ccc3oc(-c4ccc(Cl)cc4Cl)nc3c2)c1Cl [257(A3)] | 5 (5 indicates 40-79% mortality) | 0 (0 indicates less than 40% mortality) | 61 |  |  | 0 |  | 11 |  |  |  | 0* | 0* | 100* | 0* | 79* |
| Cc1nsc(NC(=O)Cc2ccc3oc(CF)nc3c2)c1Cl [73(A3)] | 0 (0 indicates less than 40% mortality) | 0 (0 indicates less than 40% mortality) | 93 | 93 | 100 |  | 100 | 0 | 100 | 57 |  |  |  |  |  |  |
| Cc1nsc(NC(=O)Cc2ccc3oc(COc4ccccc4)nc3c2)c1Cl [140(A3)] | 0 (0 indicates less than 40% mortality) | 0 (0 indicates less than 40% mortality) | 99 | 44 |  | 70 |  | 0 | 96 | 13 | 63 |  |  |  |  |  |
| CSc1nc2cc(CC(=O)Nc3snc(C)c3Cl)ccc2o1 [220(A3)] | 0 (0 indicates less than 40% mortality) | 5 (5 indicates 40-79% mortality) | −5 | 12 |  | 11 |  | 0 |  | 17 | 6 |  | 100* | 100* |  |  |
| Cc1nsc(NC(=O)Cc2ccc3nc(CC(C)(C)C)oc3c2)c1Cl [15(A23)] | 0 (0 indicates less than 40% mortality) | 0 (0 indicates less than 40% mortality) | 100 | 62 | 80 | 100 | 100 | 0 | 98 | 83 |  |  |  |  |  |  |
| CCc1nc2cc(CC(=O)Nc3snc(C)c3Cl)ccc2o1 [3(A3)] | 0 (0 indicates less than 40% mortality) | 9 (9 indicates 80-100% mortality) | 27 | 4 |  | 67 |  | 0 | 98 | 33 | 14 |  |  |  |  |  |
| Cc1nsc(NC(=O)Cc2ccc3oc(CC(C)C)nc3c2)c1Cl [14(A3)] | 0 (0 indicates less than 40% mortality) | 9 (9 indicates 80-100% mortality) | 98 | 90 | 90 | 10 | 100 | 12 | 97 | 28 | 89 |  |  |  |  |  |
| Cc1nsc(NC(=O)Cc2ccc3oc(-c4ccc(C(C)(C)C)cc4)nc3c2)c1Cl [252(A3)] | 0 (0 indicates less than 40% mortality) | 0 (0 indicates less than 40% mortality) | 79 | 30 | 46 | −47 |  | 0 | 97 | −13 | 38 |  |  |  |  |  |
| Cc1nsc(NC(=O)Cc2ccc3oc(CCc4ccccc4)nc3c2)c1Cl [247(A3)] | 0 (0 indicates less than 40% mortality) | 0 (0 indicates less than 40% mortality) | 95 | 61 | 85 | −11 | 97 | 0 | 95 | 13 | 62 |  |  |  |  |  |
| Cc1nsc(NC(=O)Cc2ccc3oc(-c4ccccc4)nc3c2)c1Cl [248(A3)] | 0 (0 indicates less than 40% mortality) | 0 (0 indicates less than 40% mortality) | 7 |  |  | 100 |  | 7 |  |  |  | 0* | 17* | 100* | 0* | 97* |
| Cc1nc2cc(CC(=O)Nc3snc(C)c3Cl)ccc2s1 [2(A13)] | 5 (5 indicates 40-79% mortality) | 0 (0 indicates less than 40% mortality) | 72 | 31 | 47 |  | 100 | 43 | 99 | 62 |  |  |  |  |  |  |
| CC(C)=Cc1nc2cc(CC(=O)Nc3snc(C)c3Cl)ccc2o1 [46(A3)] | 0 (0 indicates less than 40% mortality) | 5 (5 indicates 40-79% mortality) | 100 | 97 | 92 | 84 |  | 0 | 100 | 88 | 99 |  |  |  |  |  |
| Cc1nsc(NC(=O)Cc2ccc3oc(C(C)C)nc3c2)c1Cl [8(A3)] | 0 (0 indicates less than 40% mortality) | 9 (9 indicates 80-100% mortality) | 40 | 20 |  | 26 |  | 0 | 90 | 0 | 6 |  |  |  |  |  |
| Cc1nsc(NC(=O)Cc2ccc3oc(C(C)(C)CCl)nc3c2)c1Cl [98(A3)] | 0 (0 indicates less than 40% mortality) | 5 (5 indicates 40-79% mortality) | 100 | 98 | 81 | 96 | 100 |  | 98 | 30 | 99 |  |  |  |  |  |
| Cc1nsc(NC(=O)Cc2ccc3oc(C4CCCC4)nc3c2)c1Cl [28(A3)] | 0 (0 indicates less than 40% mortality) | 5 (5 indicates 40-79% mortality) | 9 | 46 | 81 | 53 | 100 |  | 86 | 20 | 0 |  |  |  |  |  |
| CC=C(C)c1nc2cc(CC(=O)Nc3snc(C)c3Cl)ccc2o1 [47(A3)] | 0 (0 indicates less than 40% mortality) | 0 (0 indicates less than 40% mortality) | 98 | 86 | 88 | 37 |  | 0 | 99 | 63 | 92 |  |  |  |  |  |
| Cc1nsc(NC(=S)Cc2ccc3oc(CC(C)(C)C)nc3c2)c1Cl [15(V3)] | 0 (0 indicates less than 40% mortality) | 0 (0 indicates less than 40% mortality) | 100 | 87 | 100 | 10 | 100 | 0 | 100 | −2 |  |  |  |  |  |  |
